Some results are limits rather than exact numbers.

For orientation: IC50 means the concentration needed to halve the response being measured.

The target of assay [1] is T1, recombinant alpha-glucosidase II (murine full-length glucosidase II, alpha and beta subunits, Glu 2) (Mus musculus, UniProt Q8BHN3).
T1 construct: made in house; host or cells: HEK-293T cells transduced with BacMam viruses (75% alpha, 25% beta); protein harvested from culture supernatant
The assay is described as follows: Alpha-glucosidase II assay (4-methylumbelliferyl-alpha-D-pyranoside substrate, fluorescence). The assay is classed as biochemical. As to conditions: Glucosidase 2; read-out: Glu2 IC50.

Assay [2] has as its target T2, recombinant alpha-glucosidase I (human full-length glucosidase I, Glu 1) (Homo sapiens, UniProt Q13724).
T2 construct: 6-His (C); made in house; host or cells: HEK-293T cells transduced with BacMam virus (virus raised in Sf9)
T2 sequence (Q13724 1-837): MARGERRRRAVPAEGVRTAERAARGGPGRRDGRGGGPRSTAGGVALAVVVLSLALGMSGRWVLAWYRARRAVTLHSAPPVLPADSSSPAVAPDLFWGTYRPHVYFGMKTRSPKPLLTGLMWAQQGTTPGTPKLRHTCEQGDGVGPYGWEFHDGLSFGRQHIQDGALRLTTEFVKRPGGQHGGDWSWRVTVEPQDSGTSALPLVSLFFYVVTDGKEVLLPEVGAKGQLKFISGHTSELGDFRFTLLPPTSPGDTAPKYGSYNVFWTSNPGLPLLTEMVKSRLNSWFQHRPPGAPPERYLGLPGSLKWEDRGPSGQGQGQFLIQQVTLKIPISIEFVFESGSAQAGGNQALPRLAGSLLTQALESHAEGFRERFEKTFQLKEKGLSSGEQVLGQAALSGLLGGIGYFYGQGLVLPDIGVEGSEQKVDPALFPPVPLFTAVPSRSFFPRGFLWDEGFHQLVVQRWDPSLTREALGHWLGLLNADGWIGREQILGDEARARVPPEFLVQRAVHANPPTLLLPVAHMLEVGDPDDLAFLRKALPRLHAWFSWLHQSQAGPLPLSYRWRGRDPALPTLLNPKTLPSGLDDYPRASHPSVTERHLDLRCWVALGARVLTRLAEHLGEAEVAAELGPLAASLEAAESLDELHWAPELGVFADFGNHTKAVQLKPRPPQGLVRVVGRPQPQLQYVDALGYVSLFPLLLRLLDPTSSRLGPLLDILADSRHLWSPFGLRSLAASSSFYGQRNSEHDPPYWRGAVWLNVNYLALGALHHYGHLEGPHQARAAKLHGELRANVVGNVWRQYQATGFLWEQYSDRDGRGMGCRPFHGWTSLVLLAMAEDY
Put plainly: Alpha-glucosidase I assay (Amplex Red glucose detection, synthetic trisaccharide substrate). The class given is biochemical. To be noted: Glucosidase 1; read-out: Glu 1 IC50. Put shortly: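 Human full-length glucosidase I, His-tagged, […] and Ni-purified. Enzyme preincubated with compound dilutions 60 min at 37° C, then synthetic trisaccharide substrate 90 min at 37° C; stopped with 1.5M Tris pH 8.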

T1 sequence (O08795 15-521): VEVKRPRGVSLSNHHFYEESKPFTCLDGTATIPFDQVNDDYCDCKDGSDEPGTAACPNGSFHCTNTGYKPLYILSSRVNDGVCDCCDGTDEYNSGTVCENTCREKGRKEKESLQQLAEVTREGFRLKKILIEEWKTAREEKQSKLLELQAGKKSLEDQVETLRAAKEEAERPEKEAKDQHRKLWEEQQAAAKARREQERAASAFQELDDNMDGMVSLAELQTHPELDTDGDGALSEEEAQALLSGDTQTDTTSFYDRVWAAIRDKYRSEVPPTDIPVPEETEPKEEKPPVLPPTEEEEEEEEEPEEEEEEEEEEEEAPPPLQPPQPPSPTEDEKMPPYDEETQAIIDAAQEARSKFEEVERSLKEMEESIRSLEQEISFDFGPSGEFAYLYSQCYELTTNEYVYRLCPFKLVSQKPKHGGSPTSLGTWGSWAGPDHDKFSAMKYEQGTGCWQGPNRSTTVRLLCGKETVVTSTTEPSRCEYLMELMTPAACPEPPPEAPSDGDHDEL
T1 sequence (Q8BHN3 33-944): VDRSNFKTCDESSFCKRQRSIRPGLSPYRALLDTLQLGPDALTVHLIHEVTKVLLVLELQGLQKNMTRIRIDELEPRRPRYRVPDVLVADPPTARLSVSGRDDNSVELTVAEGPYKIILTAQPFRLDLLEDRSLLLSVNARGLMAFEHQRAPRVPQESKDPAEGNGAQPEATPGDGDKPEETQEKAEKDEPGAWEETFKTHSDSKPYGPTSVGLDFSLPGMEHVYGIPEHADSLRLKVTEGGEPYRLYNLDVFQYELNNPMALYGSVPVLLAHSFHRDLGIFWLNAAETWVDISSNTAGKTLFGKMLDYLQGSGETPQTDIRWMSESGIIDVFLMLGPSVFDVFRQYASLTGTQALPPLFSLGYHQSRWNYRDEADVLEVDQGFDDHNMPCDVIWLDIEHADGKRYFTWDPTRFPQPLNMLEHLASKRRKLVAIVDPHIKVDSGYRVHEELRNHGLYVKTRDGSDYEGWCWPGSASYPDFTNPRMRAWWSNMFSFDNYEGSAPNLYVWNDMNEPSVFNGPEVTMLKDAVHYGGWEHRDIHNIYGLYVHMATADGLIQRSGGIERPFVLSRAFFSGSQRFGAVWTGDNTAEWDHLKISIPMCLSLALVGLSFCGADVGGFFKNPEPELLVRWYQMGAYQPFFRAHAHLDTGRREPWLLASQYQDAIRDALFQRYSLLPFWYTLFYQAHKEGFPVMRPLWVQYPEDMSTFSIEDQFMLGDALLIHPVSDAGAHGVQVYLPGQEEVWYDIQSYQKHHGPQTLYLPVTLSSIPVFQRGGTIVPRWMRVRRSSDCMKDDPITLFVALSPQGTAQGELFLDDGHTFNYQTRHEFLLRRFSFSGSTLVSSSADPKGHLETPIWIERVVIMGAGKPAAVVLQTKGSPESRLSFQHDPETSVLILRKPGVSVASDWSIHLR

Consider `[N-]=[N+]=Nc1ccc(NCCC23CC(CCN4C[C@H](O)[C@@H](O)[C@H](O)[C@H]4CO)(C2)C3)c([N+](=O)[O-])c1` [Compound 1103, (2R,3R,4R,5S)-1-[2-(3-{2-[(4-azido-2-nitrophenyl)amino]ethyl}bicyclo[1.1.1]pentan-1-yl)ethyl]-2-(hydroxymethyl)piperidine-3,4,5-triol], for which the 50% inhibitory concentration (IC50) is 5 nM in assay [1] and 267 nM in assay [2].

Consider `[N-]=[N+]=Nc1ccc(NCc2ccc(Cc3ccc(CN4C[C@H](O)[C@@H](O)[C@H](O)[C@H]4CO)cc3)cc2)c([N+](=O)[O-])c1` [Compound 1105, (2R,3R,4R,5S)-1-({4-[(4-{[(4-azido-2-nitrophenyl)amino]methyl}phenyl)methyl]phenyl}methyl)-2-(hydroxymethyl)piperidine-3,4,5-triol], for which the concentration for half-maximal inhibition (IC50) stood at 151 nM in assay [1] and 16 nM in assay [2].

As for `[N-]=[N+]=Nc1ccc(NCC[C@H]2CC[C@@H](CCN3C[C@H](O)[C@@H](O)[C@H](O)[C@H]3CO)CC2)c([N+](=O)[O-])c1` [Compound 1106, (2R,3R,4R,5S)-2-(hydroxymethyl)-1-{2-[(1s,4s)-4-{2-[(4-azido-2-nitrophenyl)amino]ethyl}cyclohexyl]ethyl}piperidine-3,4,5-triol], the IC50 in assay [1] was 9 nM; in assay [2], less than 1 nM.

In the case of `[N-]=[N+]=Nc1ccc(NCC[C@H]2CC[C@H](CCN3C[C@H](O)[C@@H](O)[C@H](O)[C@H]3CO)CC2)c([N+](=O)[O-])c1` [Compound 1107, (2R,3R,4R,5S)-2-(hydroxymethyl)-1-{2-[(1r,4r)-4-{2-[(4-azido-2-nitrophenyl)amino]ethyl}cyclohexyl]ethyl}piperidine-3,4,5-triol], the figures for the half-inhibitory concentration (IC50) in assay [1] and in assay [2] were 41 nM and 107 nM, respectively.

As for `O=[N+]([O-])c1cc(CN2CCCO2)ccc1NCCc1ccc(CCN2C[C@H](O)[C@@H](O)[C@H](O)[C@H]2CO)cc1` [Compound 1108, (2R,3R,4R,5S)-2-(hydroxymethyl)-1-(2-{4-[2-({2-nitro-4-[(1,2-oxazolidin-2-yl)methyl]phenyl}amino)ethyl]phenyl}ethyl)piperidine-3,4,5-triol], the figures for the IC50 in assay [1] and in assay [2] were 7 nM and 247 nM, respectively.

As for `O=[N+]([O-])c1cc(-c2cccnn2)ccc1NCCc1ccc(CCN2C[C@H](O)[C@@H](O)[C@H](O)[C@H]2CO)cc1` [Compound 1109, (2R,3R,4R,5S)-2-(hydroxymethyl)-1-{2-[4-(2-{[2-nitro-4-(pyridazin-3-yl)phenyl]amino}ethyl)phenyl]ethyl}piperidine-3,4,5-triol], the values for the 50% inhibitory concentration (IC50) in assay [1] and in assay [2] were less than 1 nM and 6 nM, respectively.

Take `O=[N+]([O-])c1cc(-c2ccncc2)ccc1NCCc1ccc(CCN2C[C@H](O)[C@@H](O)[C@H](O)[C@H]2CO)cc1` [Compound 1110, (2R,3R,4R,5S)-2-(hydroxymethyl)-1-{2-[4-(2-{[2-nitro-4-(pyridin-4-yl)phenyl]amino}ethyl)phenyl]ethyl}piperidine-3,4,5-triol]: the IC50 in assay [1] and in assay [2] was less than 1 nM each time.

Consider `O=[N+]([O-])c1cc(-c2ncccn2)ccc1NCCc1ccc(CCN2C[C@H](O)[C@@H](O)[C@H](O)[C@H]2CO)cc1` [Compound 1111, (2R,3R,4R,5S)-2-(hydroxymethyl)-1-{2-[4-(2-{[2-nitro-4-(pyrimidin-2-yl)phenyl]amino}ethyl)phenyl]ethyl}piperidine-3,4,5-triol], for which the IC50 in assay [1] was determined as 10 nM; in assay [2], 68 nM.

Take `O=[N+]([O-])c1cc(-c2ncco2)ccc1NCCc1ccc(CCN2C[C@H](O)[C@@H](O)[C@H](O)[C@H]2CO)cc1` [Compound 1112, (2R,3R,4R,5S)-2-(hydroxymethyl)-1-{2-[4-(2-{[2-nitro-4-(1,3-oxazol-2-yl)phenyl]amino}ethyl)phenyl]ethyl}piperidine-3,4,5-triol]: the IC50 in assay [1] turned out to be 101 nM; in assay [2] it was 89 nM.

Turning to `O=S(=O)(Nc1cc(NCCCCCCN2C[C@H](O)[C@@H](O)[C@H](O)[C@H]2CO)cc(-c2ncccn2)c1)C1CC1` [Compound 1114, N-[3-(pyrimidin-2-yl)-5-({6-[(2R,3R,4R,5S)-3,4,5-trihydroxy-2-(hydroxymethyl)piperidin-1-yl]hexyl}amino)phenyl]cyclopropanesulfonamide], the results for the IC50 in assay [1] and in assay [2] were 3 nM and 108 nM, respectively.

Turning to `[N-]=[N+]=Nc1ccc(NCCc2cc(CCN3C[C@H](O)[C@@H](O)[C@H](O)[C@H]3CO)cc(C3CCCCC3)c2)c([N+](=O)[O-])c1` [Compound 1115, (2R,3R,4R,5S)-1-[2-(3-{2-[(4-azido-2-nitrophenyl)amino]ethyl}-5-cyclohexylphenyl)ethyl]-2-(hydroxymethyl)piperidine-3,4,5-triol], the values for the IC50 in assay [1] and in assay [2] were 1080 nM and 100 nM, respectively.

For `COC(=O)c1cc(Cl)cc(NCCc2ccc(CCN3C[C@H](O)[C@@H](O)[C@H](O)[C@H]3CO)cc2)c1` [Compound 1116, methyl 3-chloro-5-{[2-(4-{2-[(2R,3R,4R,5S)-3,4,5-trihydroxy-2-(hydroxymethyl)piperidin-1-yl]ethyl}phenyl)ethyl]amino}benzoate], the IC50 in assay [1] is less than 1 nM; in assay [2], 1360 nM.

As for `O=C(O)c1cc(Cl)cc(NCCc2ccc(CCN3C[C@H](O)[C@@H](O)[C@H](O)[C@H]3CO)cc2)c1` [Compound 1117, 3-chloro-5-{[2-(4-{2-[(2R,3R,4R,5S)-3,4,5-trihydroxy-2-(hydroxymethyl)piperidin-1-yl]ethyl}phenyl)ethyl]amino}benzoic acid], the values for the half-inhibitory concentration (IC50) in assay [1] and in assay [2] were 139 nM and 877 nM, respectively.

On to `O=C(O)c1cc(NCCCCCCN2C[C@H](O)[C@@H](O)[C@H](O)[C@H]2CO)cc(-c2ncccn2)c1` [Compound 1118, 3-(pyrimidin-2-yl)-5-({6-[(2R,3R,4R,5S)-3,4,5-trihydroxy-2-(hydroxymethyl)piperidin-1-yl]hexyl}amino) benzoic acid], for which the half-maximal inhibitory concentration (IC50) in assay [1] was determined as 5 nM; in assay [2], 10 nM.

Consider `COc1cc(NCCc2ccc(CCN3C[C@H](O)[C@@H](O)[C@H](O)[C@H]3CO)cc2)cc(-c2noc(C3CCC3)n2)c1` [Compound 1120, (2R,3R,4R,5S)-1-{2-[4-(2-{[3-(5-cyclobutyl-1,2,4-oxadiazol-3-yl)-5-methoxyphenyl]amino}ethyl)phenyl]ethyl}-2-(hydroxymethyl)piperidine-3,4,5-triol], for which the IC50 in assay [1] came out at 1 nM; in assay [2] it was 1130 nM.

`OC[C@@H]1[C@@H](O)[C@H](O)[C@@H](O)CN1CCc1ccc(CCNc2cc(Cl)cc(-c3noc(C4CCC4)n3)c2)cc1` [Compound 1122, (2R,3R,4R,5S)-1-{2-[4-(2-{[3-chloro-5-(5-cyclobutyl-1,2,4-oxadiazol-3-yl)phenyl]amino}ethyl)phenyl]ethyl}-2-(hydroxymethyl)piperidine-3,4,5-triol]: the IC50 came to 294 nM in assay [1] and 1160 nM in assay [2].

The values are drawn from patent US20250197372A1 (priority 2020, published 2025).
